Results: ChEMBL document CHEMBL5465560, “Selectivity Literature for EUbOPEN Chemogenomic Library” (2024)

Experiments:
[1] = target: Serine/threonine-protein kinase PAK 2 (Homo sapiens) (UniProt Q13177); experiment: Selectivity interaction (Kinase panel (KiNativ target engagement assay in Jurkat cells)) EUB0001635a PAK2; assay type: cell-based; conditions: Selectivity number of off-targets 0.0, Selectivity number of targets 233.0, Source Knowledge https://www.sciencedirect.com/science/article/pii/S2451945619300674?via%3Dihub, at 1 µM
Serine/threonine-protein kinase PAK 2 (Homo sapiens), sequence (Q13177 whole entry): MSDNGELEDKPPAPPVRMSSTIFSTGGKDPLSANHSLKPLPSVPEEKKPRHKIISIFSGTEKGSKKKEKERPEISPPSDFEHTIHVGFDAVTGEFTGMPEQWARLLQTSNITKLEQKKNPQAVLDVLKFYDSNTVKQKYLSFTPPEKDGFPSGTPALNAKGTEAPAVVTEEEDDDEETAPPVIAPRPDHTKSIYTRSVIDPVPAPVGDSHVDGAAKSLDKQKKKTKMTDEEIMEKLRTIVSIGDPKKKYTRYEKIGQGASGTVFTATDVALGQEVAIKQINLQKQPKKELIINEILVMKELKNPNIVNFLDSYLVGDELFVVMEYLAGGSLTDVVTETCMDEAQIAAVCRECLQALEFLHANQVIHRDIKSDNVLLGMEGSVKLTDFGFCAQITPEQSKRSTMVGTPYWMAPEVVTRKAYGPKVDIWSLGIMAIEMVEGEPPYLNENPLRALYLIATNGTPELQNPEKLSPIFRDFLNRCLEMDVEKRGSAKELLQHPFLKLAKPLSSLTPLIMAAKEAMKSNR

[2] = target: Dual specificity protein kinase CLK1 (Homo sapiens, UniProt P49759); experiment: Selectivity interaction (KinomeScan (DiscoverX)) EUB0000229b CLK1; conditions: at 10 µM
Dual specificity protein kinase CLK1, sequence (P49759 whole entry, looked up): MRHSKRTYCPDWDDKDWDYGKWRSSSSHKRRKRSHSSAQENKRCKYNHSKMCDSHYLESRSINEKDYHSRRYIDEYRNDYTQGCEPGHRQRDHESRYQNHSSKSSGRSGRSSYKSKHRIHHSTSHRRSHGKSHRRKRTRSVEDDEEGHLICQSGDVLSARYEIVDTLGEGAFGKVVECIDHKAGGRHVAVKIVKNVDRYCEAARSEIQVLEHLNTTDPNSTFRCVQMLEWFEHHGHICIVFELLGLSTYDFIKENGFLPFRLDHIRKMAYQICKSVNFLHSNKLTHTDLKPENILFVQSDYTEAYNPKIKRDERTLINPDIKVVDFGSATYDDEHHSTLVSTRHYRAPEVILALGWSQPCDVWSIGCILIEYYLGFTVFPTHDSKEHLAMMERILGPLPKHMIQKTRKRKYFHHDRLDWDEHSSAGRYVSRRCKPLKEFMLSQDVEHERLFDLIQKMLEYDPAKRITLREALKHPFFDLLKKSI

[3] = target: Cyclin-dependent kinase-like 1 (Homo sapiens) (UniProt Q00532); experiment: Selectivity interaction (KinomeScan (DiscoverX)) EUB0000595a CDKL1; conditions: at 10 µM
Cyclin-dependent kinase-like 1 (Homo sapiens), sequence (Q00532 whole entry): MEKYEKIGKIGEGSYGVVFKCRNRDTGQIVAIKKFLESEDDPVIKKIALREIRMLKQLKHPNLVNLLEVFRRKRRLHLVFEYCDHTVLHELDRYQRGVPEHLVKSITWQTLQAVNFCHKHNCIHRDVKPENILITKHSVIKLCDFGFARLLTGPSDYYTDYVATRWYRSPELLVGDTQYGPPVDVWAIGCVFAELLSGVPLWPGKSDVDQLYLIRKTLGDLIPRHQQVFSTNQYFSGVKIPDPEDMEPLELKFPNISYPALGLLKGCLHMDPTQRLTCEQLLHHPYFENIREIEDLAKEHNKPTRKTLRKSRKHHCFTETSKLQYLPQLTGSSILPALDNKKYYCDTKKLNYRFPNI

[4] = target: cAMP-dependent protein kinase catalytic subunit beta (Homo sapiens) (UniProt P22694); conditions: at 10 µM
[5] = target: Serine/threonine-protein kinase PLK3 (Homo sapiens, UniProt Q9H4B4); experiment: Selectivity interaction (KinomeScan (DiscoverX)) EUB0000595a PLK3; conditions: at 10 µM
Serine/threonine-protein kinase PLK3, sequence (Q9H4B4 whole entry, looked up): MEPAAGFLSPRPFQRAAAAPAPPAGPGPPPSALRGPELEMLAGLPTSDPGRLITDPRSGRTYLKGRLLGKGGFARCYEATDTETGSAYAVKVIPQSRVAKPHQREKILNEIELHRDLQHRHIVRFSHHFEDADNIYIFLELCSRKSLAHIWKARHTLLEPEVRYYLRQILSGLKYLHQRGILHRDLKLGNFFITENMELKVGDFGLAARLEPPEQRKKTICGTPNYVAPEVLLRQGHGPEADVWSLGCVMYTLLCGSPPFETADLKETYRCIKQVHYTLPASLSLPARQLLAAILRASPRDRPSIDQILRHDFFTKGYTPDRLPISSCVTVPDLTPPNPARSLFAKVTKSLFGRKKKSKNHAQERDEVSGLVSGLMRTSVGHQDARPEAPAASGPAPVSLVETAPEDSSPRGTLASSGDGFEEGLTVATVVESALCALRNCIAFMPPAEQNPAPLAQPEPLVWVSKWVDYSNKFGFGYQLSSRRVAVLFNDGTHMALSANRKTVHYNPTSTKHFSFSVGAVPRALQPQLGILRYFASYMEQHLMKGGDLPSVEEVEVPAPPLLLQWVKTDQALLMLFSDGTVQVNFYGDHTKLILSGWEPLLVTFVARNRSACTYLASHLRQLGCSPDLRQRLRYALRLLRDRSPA

[6] = target: Receptor-type tyrosine-protein kinase FLT3 (Homo sapiens) (UniProt P36888); experiment: (§1) Selectivity interaction (KinomeScan (DiscoverX)) EUB0000045b FLT3
[7] = system: T1, Receptor-type tyrosine-protein kinase FLT3 (Homo sapiens), P36888 [R834Q]; experiment: as §1
T1 sequence (whole entry): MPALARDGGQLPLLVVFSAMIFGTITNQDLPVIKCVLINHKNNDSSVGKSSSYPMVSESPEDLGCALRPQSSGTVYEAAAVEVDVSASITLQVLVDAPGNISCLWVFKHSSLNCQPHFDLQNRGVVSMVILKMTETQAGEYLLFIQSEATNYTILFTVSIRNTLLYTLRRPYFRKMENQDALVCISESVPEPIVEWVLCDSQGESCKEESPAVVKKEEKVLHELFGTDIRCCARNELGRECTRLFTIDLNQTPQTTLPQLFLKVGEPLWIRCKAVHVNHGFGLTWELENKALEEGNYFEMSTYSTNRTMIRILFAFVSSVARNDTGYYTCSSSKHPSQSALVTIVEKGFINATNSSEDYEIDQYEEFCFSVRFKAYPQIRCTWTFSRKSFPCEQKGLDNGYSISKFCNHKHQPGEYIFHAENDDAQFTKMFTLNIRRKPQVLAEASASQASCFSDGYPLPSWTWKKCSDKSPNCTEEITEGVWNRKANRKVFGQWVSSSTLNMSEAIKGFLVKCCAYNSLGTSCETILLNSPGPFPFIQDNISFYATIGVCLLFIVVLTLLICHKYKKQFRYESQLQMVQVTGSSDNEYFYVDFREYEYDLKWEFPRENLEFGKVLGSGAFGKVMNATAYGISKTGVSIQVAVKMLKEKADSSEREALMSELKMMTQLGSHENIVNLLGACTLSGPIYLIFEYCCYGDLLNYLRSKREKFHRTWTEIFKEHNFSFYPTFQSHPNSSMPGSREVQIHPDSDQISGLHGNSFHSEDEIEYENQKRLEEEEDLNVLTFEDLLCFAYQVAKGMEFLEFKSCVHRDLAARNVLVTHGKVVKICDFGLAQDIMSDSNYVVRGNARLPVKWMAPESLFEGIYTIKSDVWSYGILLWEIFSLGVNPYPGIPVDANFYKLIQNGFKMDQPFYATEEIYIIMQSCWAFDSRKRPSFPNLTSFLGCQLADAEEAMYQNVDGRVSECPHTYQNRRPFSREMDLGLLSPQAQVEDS

[8] = target: Dual specificity mitogen-activated protein kinase kinase 2 (Homo sapiens) (UniProt P36507)
Dual specificity mitogen-activated protein kinase kinase 2 (Homo sapiens), sequence (P36507 whole entry): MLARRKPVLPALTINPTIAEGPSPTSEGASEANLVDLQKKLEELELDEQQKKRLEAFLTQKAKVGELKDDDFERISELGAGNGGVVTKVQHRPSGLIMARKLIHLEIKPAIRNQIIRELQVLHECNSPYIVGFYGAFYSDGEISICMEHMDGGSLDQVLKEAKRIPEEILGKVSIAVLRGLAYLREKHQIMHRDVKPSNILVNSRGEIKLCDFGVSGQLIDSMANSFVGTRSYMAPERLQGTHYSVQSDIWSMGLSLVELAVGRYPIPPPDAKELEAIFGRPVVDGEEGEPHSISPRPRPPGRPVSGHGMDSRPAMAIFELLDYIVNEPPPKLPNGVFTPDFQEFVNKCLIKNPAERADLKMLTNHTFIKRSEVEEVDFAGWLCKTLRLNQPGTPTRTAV

[9] = target: T2, Mitogen-activated protein kinase kinase kinase 15 (Homo sapiens) (UniProt Q6ZN16); experiment: Selectivity interaction (KinomeScan (DiscoverX)) EUB0001619a MAP3K15; conditions: at 1 µM
T2 sequence (whole entry): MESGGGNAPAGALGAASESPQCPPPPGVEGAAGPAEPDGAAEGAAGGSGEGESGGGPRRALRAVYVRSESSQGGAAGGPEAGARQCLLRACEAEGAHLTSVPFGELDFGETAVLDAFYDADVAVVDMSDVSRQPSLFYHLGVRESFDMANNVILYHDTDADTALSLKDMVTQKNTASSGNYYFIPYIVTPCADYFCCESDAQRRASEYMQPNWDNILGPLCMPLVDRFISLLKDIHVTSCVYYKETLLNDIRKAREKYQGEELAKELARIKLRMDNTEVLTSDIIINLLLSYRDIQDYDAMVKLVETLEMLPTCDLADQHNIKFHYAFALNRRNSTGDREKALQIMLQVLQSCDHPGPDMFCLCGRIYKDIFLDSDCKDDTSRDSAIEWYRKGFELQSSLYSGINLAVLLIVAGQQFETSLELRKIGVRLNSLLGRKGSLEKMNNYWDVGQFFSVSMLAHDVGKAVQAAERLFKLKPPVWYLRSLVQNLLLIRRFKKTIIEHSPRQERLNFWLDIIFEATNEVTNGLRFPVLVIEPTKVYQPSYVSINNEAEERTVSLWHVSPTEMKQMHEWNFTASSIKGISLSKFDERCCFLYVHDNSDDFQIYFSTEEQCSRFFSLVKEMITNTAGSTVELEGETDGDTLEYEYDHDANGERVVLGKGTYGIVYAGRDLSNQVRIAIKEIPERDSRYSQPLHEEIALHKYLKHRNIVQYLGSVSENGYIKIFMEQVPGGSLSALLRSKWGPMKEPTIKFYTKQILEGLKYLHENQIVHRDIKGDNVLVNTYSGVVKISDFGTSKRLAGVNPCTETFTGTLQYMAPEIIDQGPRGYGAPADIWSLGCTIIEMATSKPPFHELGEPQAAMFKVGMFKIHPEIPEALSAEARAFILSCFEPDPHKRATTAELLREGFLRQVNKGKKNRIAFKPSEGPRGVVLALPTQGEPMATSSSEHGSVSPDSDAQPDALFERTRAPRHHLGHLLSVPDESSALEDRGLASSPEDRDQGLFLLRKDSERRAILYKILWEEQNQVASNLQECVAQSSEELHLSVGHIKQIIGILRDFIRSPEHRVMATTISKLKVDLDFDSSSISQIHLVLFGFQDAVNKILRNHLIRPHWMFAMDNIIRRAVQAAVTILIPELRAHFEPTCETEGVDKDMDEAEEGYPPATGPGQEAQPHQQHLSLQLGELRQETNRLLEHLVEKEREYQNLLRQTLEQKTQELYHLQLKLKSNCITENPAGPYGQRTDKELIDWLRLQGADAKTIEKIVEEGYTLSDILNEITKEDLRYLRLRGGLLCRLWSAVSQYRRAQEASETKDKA

SMILES: C=CC(=O)Nc1ccc(C(=O)Nc2[nH]nc3c2CN(C(=O)N[C@H](CN(C)C)c2ccccc2)C3(C)C)cc1
- % of engagement [1]: 10.9%

SMILES: COc1cc(N(C)c2ccnc3ccc(C(F)(F)F)cc23)cc(OC)c1OC
- % binding [2]: 84%

SMILES: COCC(=O)NC/C=C/c1ccc2ncnc(Nc3ccc(Oc4ccc(C)nc4)c(C)c3)c2c1 [CP-724714]
- % of control [3]: 69%
- % of control [4]: 100%
- % of control [5]: 99%

SMILES: C=CC(=O)Nc1cc(-n2c(=O)ccc3cnc4ccc(-c5ccc(NS(C)(=O)=O)cc5)cc4c32)ccc1C
- % of control ([6]; at 1 µM): 80%
- % of control ([6]; at 10 µM): 81%
- % of control ([7]; at 1 µM): 100%
- % of control ([7]; at 10 µM): 100%

SMILES: CC(=O)Nc1cccc(-n2c(=O)n(C3CC3)c(=O)c3c(Nc4ccc(I)cc4F)n(C)c(=O)c(C)c32)c1
- Kdapp [8]: 9 nM

SMILES: N#Cc1cccc(-c2c[nH]c3ncnc(N4CCOCC4)c23)c1
- % of control [9]: 74%
